This assay concerns the target T1, full-length P-Rex1 (Homo sapiens, UniProt Q8TCU6).
T1 construct: Full-length N-terminally EE-tagged P-Rex1, P-Rex2, the P-Rex1 DH and DHPH domains and the P-Rex2 DH domain were produced in Sf9 cells; made in house; host or cells: Sf9 cells (baculovirus)
Briefly: Liposome-based GEF activity assay, PIP3-stimulated full-length P-Rex1. In kind it is biochemical. To be noted: for effect on PIP3-stimulated Rac-GEF activity of full-length P-Rex1: 1, 5 and 10 µM, Rac1 or Rac2 as substrate. The text has this:
All small GTPases and GEFs used were human recombinant proteins. EE-Rac1, EE-Rac2, GST-Cdc42 or GST-RhoA were expressed in Sf9 cells by baculoviral transduction and purified using their epitope tag in their post-translationally prenylated form using Triton X-114 phase separation, essentially as previously described. Briefly, frozen pellets from a 1 litre culture of Sf9 cells transduced with high-titre baculovirus expressing the small GTPase were resuspended in ice-cold Sf9-cell lysis buffer 1 (1x PBS, 40 mM HEPES pH 7.5 at RT, 5 mM MgCl2, 10 mM EGTA, 300 µM GDP, 1 mM DTT, 200 µM PMSF, 20 μg/ml each of leupeptin, pepstatin A, aprotinin and antipain) and lysed by sonication. Triton X-114 was added (to 1% final concentration), and samples were ultracentrifuged at 118,000 × g for 50 min at 4°C. The supernatant was warmed at 37°C until cloudy (30–60 seconds) and centrifuged at 1300 × g for 2 min at 37°C. The upper phase containing non-lipid modified GTPase was discarded and replaced with ice-cold Sf9-cell lysis buffer. The warming/centrifugation steps were repeated twice and lipid-modified GTPase resuspended in ice-cold Sf9-cell lysis buffer 1 supplemented with Triton X-100 (1% final concentration), followed by ultracentrifugation at 118,000 × g for 50 min at 4°C. For EE-tagged GTPases, supernatants were incubated with anti-EE antibody covalently coupled to protein G-Sepharose beads (anti-EE beads, Onyx Pharmaceuticals) and incubated with end-over-end rotation for 90 min on ice. Beads were washed 3 times in wash buffer (PBS, 5 mM MgCl2, 1 mM DTT, 10 μM GDP, 1 mM EGTA, 0.2% Triton X-100) and 5x in elution buffer (40 mM HEPES pH 7.5, 150 mM NaCl, 5 mM MgCl2, 1 mM EGTA, 1 mM DTT, 10 µM GDP). Protein was eluted by three incubations with elution buffer containing peptide Ac-EEYMPME (Activotec, Comberton, UK) and cholate (first 1%, then twice 0.5%) for 20 min on ice. For GST-tagged GTPases, supernatants were incubated with glutathione Sepharose beads and were eluted with glutathione in the same manner. Proteins were concentrated in a YM-10 Centricon (Millipore) at 5000 × g, 4°C. Protein concentration and purity was determined by coomassie staining of SDS-PAGE gels. For use in the mant-GTP assay, EE-Rac 1 was expressed in BL21 (DE3) bacteria (NEB, C25271), by induction with 0.5 mM IPTG overnight at 18°C. Bacterial pellets from 500 ml cultures were resuspended in 20 ml bacterial lysis buffer (40 mM Hepes, pH 7.5 at 4°C, 150 mM NaCl, 1% Triton X-100, 5 mM MgCl2, 1 mM DTT, 300 μM GDP, 200 µM PMSF, and 20 μg/ml each of leupeptin, pepstatin A, aprotinin and antipain) and were lysed by sonication. 5 μg/ml DNAse and 5 μg/ml RNAse were added and the lysate incubated on ice for 10 min. […]

T1 sequence (Q8TCU6 whole entry, the tested form may be a part): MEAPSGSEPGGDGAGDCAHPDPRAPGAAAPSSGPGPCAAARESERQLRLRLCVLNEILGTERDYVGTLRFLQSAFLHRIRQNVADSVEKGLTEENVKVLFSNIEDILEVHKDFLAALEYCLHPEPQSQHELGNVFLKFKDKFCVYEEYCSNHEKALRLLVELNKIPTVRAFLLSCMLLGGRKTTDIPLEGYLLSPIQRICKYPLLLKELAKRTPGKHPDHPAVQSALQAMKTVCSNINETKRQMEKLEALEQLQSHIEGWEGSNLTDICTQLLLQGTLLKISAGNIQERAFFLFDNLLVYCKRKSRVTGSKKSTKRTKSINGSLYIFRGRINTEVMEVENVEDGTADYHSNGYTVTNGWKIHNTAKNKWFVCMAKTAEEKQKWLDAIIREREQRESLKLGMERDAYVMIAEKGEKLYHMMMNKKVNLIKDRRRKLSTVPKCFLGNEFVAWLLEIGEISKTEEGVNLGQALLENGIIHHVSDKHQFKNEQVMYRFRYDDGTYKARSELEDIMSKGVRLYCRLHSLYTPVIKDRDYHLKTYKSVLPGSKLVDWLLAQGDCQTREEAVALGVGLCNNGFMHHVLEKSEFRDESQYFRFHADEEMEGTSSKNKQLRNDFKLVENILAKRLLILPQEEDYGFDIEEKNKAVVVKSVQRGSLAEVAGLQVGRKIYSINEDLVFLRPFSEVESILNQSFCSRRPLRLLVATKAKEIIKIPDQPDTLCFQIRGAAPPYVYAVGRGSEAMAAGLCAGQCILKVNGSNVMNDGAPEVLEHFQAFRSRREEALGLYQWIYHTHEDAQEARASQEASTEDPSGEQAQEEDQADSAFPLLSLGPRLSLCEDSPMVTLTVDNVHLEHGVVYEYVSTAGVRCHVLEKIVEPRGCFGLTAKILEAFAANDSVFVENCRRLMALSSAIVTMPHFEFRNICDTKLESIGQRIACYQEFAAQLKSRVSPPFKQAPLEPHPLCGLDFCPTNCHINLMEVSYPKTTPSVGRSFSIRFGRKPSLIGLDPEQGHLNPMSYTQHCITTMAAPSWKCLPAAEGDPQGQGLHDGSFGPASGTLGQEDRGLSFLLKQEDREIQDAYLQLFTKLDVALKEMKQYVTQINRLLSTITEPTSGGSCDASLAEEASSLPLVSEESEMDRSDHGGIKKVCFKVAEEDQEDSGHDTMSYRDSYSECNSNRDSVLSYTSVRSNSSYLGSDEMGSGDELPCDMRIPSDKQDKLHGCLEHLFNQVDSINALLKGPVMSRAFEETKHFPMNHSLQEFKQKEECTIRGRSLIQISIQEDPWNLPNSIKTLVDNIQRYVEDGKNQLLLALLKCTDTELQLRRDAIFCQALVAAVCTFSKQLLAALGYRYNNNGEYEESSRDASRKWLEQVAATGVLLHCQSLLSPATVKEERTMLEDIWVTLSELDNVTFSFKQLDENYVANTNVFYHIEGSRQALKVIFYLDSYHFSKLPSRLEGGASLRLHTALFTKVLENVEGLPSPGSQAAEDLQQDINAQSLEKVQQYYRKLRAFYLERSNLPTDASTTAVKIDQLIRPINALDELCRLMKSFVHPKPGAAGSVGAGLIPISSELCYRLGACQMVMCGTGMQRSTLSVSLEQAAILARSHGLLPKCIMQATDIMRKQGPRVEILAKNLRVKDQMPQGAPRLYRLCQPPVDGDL

As for `CC1CCC(C(C)C)c2nn(C(=O)/C=C\c3ccccc3)c(-c3cccc4ccccc34)c21` (stereo not drawn) [#10], the “effect on PIP3-stimulated Rac-GEF activity of full-length P-Rex1” value was “inhibited”.
In the case of `COc1ccc(-c2[nH]nc3c2C(c2ccc(-c4ccc(Cl)cc4)o2)C(C#N)=C(N)O3)cc1` (stereo not drawn) [PREX-in1, 6-amino-4-[5-(4-chlorophenyl)-2-furyl]-3-(4-methoxyphenyl)-2,4-dihydropyrano[2,3-c]pyrazole-5-carbonitrile], the “effect on PIP3-stimulated Rac-GEF activity of full-length P-Rex1” value is reported as “inhibited”. Besides, the “reduction of PIP3-stimulated Rac-GEF activity of full-length P-Rex1” value (10 µM, 50 nM P-Rex1, 100 nM prenylated Rac1, 10 µM PIP3) is listed as 56%.

The values above are taken from publication PMC9645260, “Small-molecule inhibitors of P-Rex guanine-nucleotide exchange factors” (Small GTPases, 2022).
